Earlier results in patent US12318448B2, “Use of TLR agonist and anti-CD47 agent to enhance phagocytosis of cancer cells” (The Board of Trustees of the Leland Stanford Junior …, priority 2015, dated 2025).

Biological target: T1, TLR7 (Homo sapiens, UniProt Q9NYK1)
T1 sequence (Q9NYK1 27-1049): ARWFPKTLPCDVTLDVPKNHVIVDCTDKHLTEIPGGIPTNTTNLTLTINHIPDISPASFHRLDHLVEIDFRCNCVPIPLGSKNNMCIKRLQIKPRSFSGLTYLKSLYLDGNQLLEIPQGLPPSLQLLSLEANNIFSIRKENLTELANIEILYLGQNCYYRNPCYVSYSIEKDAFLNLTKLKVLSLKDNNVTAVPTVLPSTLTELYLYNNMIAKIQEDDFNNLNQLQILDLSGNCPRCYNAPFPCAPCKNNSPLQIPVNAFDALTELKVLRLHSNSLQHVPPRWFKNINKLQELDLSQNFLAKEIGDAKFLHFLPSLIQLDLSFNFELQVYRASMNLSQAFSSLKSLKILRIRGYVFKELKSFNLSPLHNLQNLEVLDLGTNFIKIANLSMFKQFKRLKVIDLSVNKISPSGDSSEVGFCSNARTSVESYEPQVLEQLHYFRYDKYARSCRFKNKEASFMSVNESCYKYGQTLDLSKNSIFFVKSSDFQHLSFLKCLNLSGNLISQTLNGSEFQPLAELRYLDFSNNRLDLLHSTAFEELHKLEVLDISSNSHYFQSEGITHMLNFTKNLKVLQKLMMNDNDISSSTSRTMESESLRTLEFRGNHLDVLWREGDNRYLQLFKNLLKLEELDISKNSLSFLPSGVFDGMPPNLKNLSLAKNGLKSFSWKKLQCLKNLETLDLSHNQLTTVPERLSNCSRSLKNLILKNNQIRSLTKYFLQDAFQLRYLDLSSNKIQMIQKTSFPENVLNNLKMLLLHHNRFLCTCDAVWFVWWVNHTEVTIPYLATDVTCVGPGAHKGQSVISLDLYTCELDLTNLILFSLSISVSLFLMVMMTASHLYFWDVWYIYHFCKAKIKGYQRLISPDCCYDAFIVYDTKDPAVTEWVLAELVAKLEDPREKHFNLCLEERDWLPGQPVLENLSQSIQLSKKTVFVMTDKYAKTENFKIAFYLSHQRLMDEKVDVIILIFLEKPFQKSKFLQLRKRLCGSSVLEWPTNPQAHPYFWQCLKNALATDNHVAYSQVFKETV
Details: administered parenterally as monotherapy; cited from earlier work

## CCc1nc2c(N)nc3ccccc3c2n1CCCCNS(C)(=O)=O [852A]
  clinical efficacy: modest clinical efficacy with disease stabilization
